One test has as its target T1, Son of Sevenless (SOS) (Homo sapiens, UniProt Q07889).
T1 sequence (Q07889 564-1049 limits assumed): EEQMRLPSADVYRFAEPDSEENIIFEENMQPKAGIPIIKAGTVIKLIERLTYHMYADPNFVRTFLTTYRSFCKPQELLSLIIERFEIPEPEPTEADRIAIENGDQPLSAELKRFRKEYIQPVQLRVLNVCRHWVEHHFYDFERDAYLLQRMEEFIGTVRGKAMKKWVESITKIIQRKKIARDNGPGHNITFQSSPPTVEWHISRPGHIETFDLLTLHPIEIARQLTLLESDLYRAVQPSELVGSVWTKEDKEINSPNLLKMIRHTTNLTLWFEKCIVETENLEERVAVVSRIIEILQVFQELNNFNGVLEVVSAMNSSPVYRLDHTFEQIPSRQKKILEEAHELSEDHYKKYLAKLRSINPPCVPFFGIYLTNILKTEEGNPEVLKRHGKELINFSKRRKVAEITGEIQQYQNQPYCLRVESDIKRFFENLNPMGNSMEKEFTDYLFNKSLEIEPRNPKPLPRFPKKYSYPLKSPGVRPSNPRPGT
Put plainly: Binding to SOS, fluorescence polarization anisotropy (FPA) displacement of FITC-conjugated probe. The note with it: binding affinity calculated from IC50 of FITC-probe displacement, read-out: Binding affinities (binding affinity to SOS). On the procedure:
Compounds of the present invention were tested for their ability to the Ras guanine exchange factor (GEF) Son of Sevenless (SOS). Binding to SOS was measured using a Fluorescence polarization anisotropy (FPA) assay that assesses the ability of a test compound to displace a fluorescent FITC-conjugated compound. Briefly, the labeled probe compound is incubated with SOS in buffer. Changes in anisotropy indicative of displacement of the labeled probe for a test compound are assessed over a dose range of test compound. Data was analyzed by plotting fluorescence anisotropy values as a function of compound concentration. IC50 values were determined using a four-parameter dose-response (variable slope) and binding affinities were calculated from this IC50 value. This assay is performed in a method analogous to the assay disclosed in: Burns, M. C.; Sun, Q.; Daniels, R. N.; Camper, D. V.; Kennedy, J. P.; Phan, J.; Olejniczak, E. O.; Lee, T.; Waterson, A. G.; Rossanese, O. W.; Fesik, S. W. “Approach for targeting Ras with small molecules that activate SOS-mediated nucleotide exchange” Proc. Natl. Acad. Sci. 2014; 11(9): 3401-3406. PMCID: PMC3948241.

Test [1] concerns the target T2, SOS-mediated nucleotide exchange on Ras (Homo sapiens, UniProt Q07889).
T2 sequence (Q07889 1-1333): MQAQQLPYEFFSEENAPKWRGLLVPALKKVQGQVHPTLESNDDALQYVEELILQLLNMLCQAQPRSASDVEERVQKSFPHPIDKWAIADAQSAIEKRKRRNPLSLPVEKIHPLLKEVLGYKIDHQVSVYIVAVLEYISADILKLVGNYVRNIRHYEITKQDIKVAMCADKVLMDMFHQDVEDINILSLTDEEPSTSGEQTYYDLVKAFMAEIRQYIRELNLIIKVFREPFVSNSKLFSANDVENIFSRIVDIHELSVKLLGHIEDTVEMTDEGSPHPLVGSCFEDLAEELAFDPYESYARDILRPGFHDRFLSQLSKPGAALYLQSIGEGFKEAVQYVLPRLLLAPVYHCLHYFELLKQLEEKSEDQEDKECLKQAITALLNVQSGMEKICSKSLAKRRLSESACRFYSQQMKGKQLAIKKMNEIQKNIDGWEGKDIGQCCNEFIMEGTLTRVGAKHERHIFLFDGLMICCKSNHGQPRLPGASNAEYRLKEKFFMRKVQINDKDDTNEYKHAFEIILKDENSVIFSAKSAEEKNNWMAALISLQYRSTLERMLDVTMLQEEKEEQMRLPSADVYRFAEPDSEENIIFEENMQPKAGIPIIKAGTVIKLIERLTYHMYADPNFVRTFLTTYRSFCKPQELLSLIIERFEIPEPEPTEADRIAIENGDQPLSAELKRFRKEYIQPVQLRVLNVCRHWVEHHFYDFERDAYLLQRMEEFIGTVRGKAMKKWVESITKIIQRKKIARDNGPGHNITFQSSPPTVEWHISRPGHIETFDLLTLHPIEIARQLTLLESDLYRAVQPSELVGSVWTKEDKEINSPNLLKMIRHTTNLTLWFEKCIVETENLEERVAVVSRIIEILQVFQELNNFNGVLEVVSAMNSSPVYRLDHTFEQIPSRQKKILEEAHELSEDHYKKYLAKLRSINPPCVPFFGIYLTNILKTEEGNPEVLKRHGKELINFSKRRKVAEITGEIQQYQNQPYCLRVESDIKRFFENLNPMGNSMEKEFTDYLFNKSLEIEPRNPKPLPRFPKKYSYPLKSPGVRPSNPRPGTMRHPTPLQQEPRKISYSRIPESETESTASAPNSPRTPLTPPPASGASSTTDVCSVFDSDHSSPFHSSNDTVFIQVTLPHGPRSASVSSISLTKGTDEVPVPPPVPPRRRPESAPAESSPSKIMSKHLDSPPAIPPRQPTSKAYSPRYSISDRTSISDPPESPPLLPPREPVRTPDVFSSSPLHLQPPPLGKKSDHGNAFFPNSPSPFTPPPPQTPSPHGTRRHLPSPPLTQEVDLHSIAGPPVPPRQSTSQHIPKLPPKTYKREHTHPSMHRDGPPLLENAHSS
Put plainly: SOS-mediated nucleotide exchange on Ras (BODIPY-GDP fluorescence). Type of test: biochemical. The note with it: Ras loaded with BODIPY-GDP, GTP and SOS added; EC50 from derived exchange rates. How it is done: A. SOS-Mediated Nucleotide Exchange on Ras
Compounds of the present invention were tested for their ability to modify the rate at which Ras exchanges a labeled nucleotide guanosine diphosphate (GDP) analog for guanosine triphosphate (GTP). Briefly, test compounds, then GTP and the Ras GEF SOS (Son of Sevenless) are added to a buffered solution containing Ras protein loaded with BODIPY-GDP. Changes in fluorescence indicating exchange of the labeled GDP for GTP are monitored over time. Raw fluorescence data was fit to a single exponential decay function and derived rates were plotted as mean values. EC50 values were calculated by plotting mean derived rates as a function of compound concentration and fit using a four-parameter dose-response curve. Full assay details are disclosed in: Burns, M. C.; Sun, Q.; Daniels, R. N.; Camper, D. V.; Kennedy, J. P.; Phan, J.; Olejniczak, E. O.; Lee, T.; Waterson, A. G.; Rossanese, O. W.; Fesik, S. W. “Approach for targeting Ras with small molecules that activate SOS-mediated nucleotide exchange” Proc. Natl. Acad. Sci. 2014; 11(9): 3401-3406. PMCID: PMC3948241.

We go through 18 compounds from US11318137B2, “Quinazoline compounds as modulators of Ras signaling” (VANDERBILT UNIVERSITY, priority 2017, dated 2022).

Where only a bound is given, the exact number is not on record here.

For the compound `Clc1ccc(Nc2nc(NCc3ccco3)c3ccccc3n2)cc1Cl` [Example 32, N^2-(3,4-dichlorophenyl)-N^4-(furan-2-ylmethyl)quinazoline-2,4-diamine], the Ki at Son of Sevenless (SOS) was over 5 µM. Also, the EC50 in test [1] was 1 to 5 µM.

With `C[C@@H](Nc1nc(NCc2ccc(F)cc2F)nc2ccccc12)C1CC1` [Example 19, (R)—N^4-(1-cyclopropylethyl)-N^2-(2,4-difluorobenzyl)quinazoline-2,4-diamine], at Son of Sevenless (SOS), the Ki is over 5 µM. The compound further registered a half-maximal effective concentration (EC50) in test [1] of 5 to 30 µM.

Regarding `CC[C@@H](Nc1nc(NCC2CCCCC2)nc2c(C3=CCNCC3)cccc12)C1CC1` [Example 125, (R)—N^2-(cyclohexylmethyl)-N^4-(1-cyclopropylpropyl)-8-(1,2,3,6-tetrahydropyridin-4-yl)quinazoline-2,4-diamine], on Son of Sevenless (SOS), the Ki was under 1 µM. Further, the EC50 in test [1] was under 1 µM.

Turning to `CCC[C@@H](Nc1nc(Nc2ccc(F)c(Cl)c2)nc2ccccc12)C1CC1` [Example 36, (R)—N^2-(3-chloro-4-fluorophenyl)-N^4-(1-cyclopropylbutyl)quinazoline-2,4-diamine], at Son of Sevenless (SOS), the Ki was over 5 µM. Further, in test [1], the EC50 lay in the range of 1 to 5 µM.

On to `C[C@@H](Nc1nc(NCc2cccc(Cl)c2F)nc2c(CCN)cccc12)C(C)(C)C` [Example 85, (R)-8-(2-aminoethyl)-N^2-(3-chloro-2-fluorobenzyl)-N^4-(3,3-dimethylbutan-2-yl)quinazoline-2,4-diamine], for which the Ki on Son of Sevenless (SOS) was 1 to 5 µM. The EC50 in test [1] was 5 to 30 µM.

Consider `C[C@@H](Nc1nc(Nc2ccc(F)c(Cl)c2)nc2c(NCCN)cccc12)C1CC1` [Example 65, (R)—N^8-(2-aminoethyl)-N^2-(3-chloro-4-fluorophenyl)-N^4-(1-cyclopropylethyl)quinazoline-2,4,8-triamine], for which the Ki on Son of Sevenless (SOS) is over 5 µM. Further, the EC50 in test [1] lay in the range of 5 to 30 µM.

`C[C@@H](Nc1nc(NCC2CCCCC2)nc2c(CCN)cccc12)C(C)(C)C` [Example 84, (R)-8-(2-aminoethyl)-N^2-(cyclohexylmethyl)-N^4-(3,3-dimethylbutan-2-yl)quinazoline-2,4-diamine]: the Ki at Son of Sevenless (SOS) was 1 to 5 µM. The EC50 in test [1] lay in the range of 5 to 30 µM.

In the case of `Cc1cc(F)cc(Nc2nc(N[C@H](C)c3cccs3)c3cccc(C4=CCNCC4)c3n2)c1` [Example 89, (R)—N^2-(3-fluoro-5-methylphenyl)-8-(1,2,3,6-tetrahydropyridin-4-yl)-N^4-(1-(thiophen-2-yl)ethyl)quinazoline-2,4-diamine], on Son of Sevenless (SOS), the Ki was 1 to 5 µM. In test [1], the EC50 was 1 to 5 µM.

As to `C[C@@H](Nc1nc(NCc2cccc(Cl)c2F)nc2c(CCN)cccc12)C1CC1` [Example 119, (R)-8-(2-aminoethyl)-N^2-(3-chloro-2-fluorobenzyl)-N^4-(1-cyclopropylethyl)quinazoline-2,4-diamine], the Ki on Son of Sevenless (SOS) was 1 to 5 µM. This compound also showed an EC50 in test [1] of 1 to 5 µM.

Take `C=CC[C@@H](Nc1nc(NCC2CCCCC2)nc2c(C3=CCNCC3)cccc12)C1CC1` [Example 117, (R)—N^2-(cyclohexylmethyl)-N^4-(1-cyclopropylbut-3-en-1-yl)-8-(1,2,3,6-tetrahydropyridin-4-yl)quinazoline-2,4-diamine]: the Ki at Son of Sevenless (SOS) was under 1 µM. The EC50 in test [1] was 1 to 5 µM.

Consider `C[C@@H](Nc1nc(NCC2CCCCC2)nc2c(CCN)cccc12)C1CC1` [Example 77], for which, at Son of Sevenless (SOS), the Ki is under 1 µM. Further, in test [1], the EC50 lay in the range of 1 to 5 µM.

Consider `C[C@@H](Nc1nc(NCC2CCC2)nc2c(C3=CCNCC3)cccc12)C1CC1` [Example 106, (R)—N^2-(cyclobutylmethyl)-N^4-(1-cyclopropylethyl)-8-(1,2,3,6-tetrahydropyridin-4-yl)quinazoline-2,4-diamine], for which the Ki on Son of Sevenless (SOS) was 1 to 5 µM. The compound further yielded an EC50 in test [1] of under 1 µM.

On to `CC[C@@H](Nc1nc(Nc2cc(C)cc(F)c2)nc2c(CCN)cccc12)C1CC1` [Example 128, (R)-8-(2-aminoethyl)-N^4-(1-cyclopropylpropyl)-N^2-(3-fluoro-5-methylphenyl)quinazoline-2,4-diamine], for which, on Son of Sevenless (SOS), the Ki was 1 to 5 µM. In addition, in test [1], the EC50 was in the range of 1 to 5 µM.

Turning to `CCC(Nc1nc(Nc2ccc(F)c(Cl)c2)nc2ccccc12)C(C)C` (stereo not drawn) [Example 2, N^2-(3-chloro-4-fluorophenyl)-N^4-(2-methylpentan-3-yl)quinazoline-2,4-diamine], the Ki on Son of Sevenless (SOS) was over 5 µM. This compound also showed a half-maximal effective concentration (EC50) in test [1] of 1 to 5 µM.

For `C[C@@H](Nc1nc(Nc2ccc(F)c(Cl)c2)nc2c(CCN)cccc12)c1cccs1` [Example 91, (R)-8-(2-aminoethyl)-N^2-(3-chloro-4-fluorophenyl)-N^4-(1-(thiophen-2-yl)ethyl)quinazoline-2,4-diamine], at Son of Sevenless (SOS), the Ki was 1 to 5 µM. In test [1], this compound returned an EC50 of 5 to 30 µM.

In the case of `Cc1cc(F)cc(Nc2nc(N[C@H](C)C(C)(C)C)c3cccc(CN)c3n2)c1` [Example 131, (R)-8-(aminomethyl)-N^4-(3,3-dimethylbutan-2-yl)-N^2-(3-fluoro-5-methylphenyl)quinazoline-2,4-diamine], on Son of Sevenless (SOS), the Ki was over 5 µM. This compound also had an EC50 in test [1] of 5 to 30 µM.

With `C[C@@H](Nc1nc(Nc2ccc(F)c(Cl)c2)nc2c(CCN)cccc12)C1CC1` [Example 60, (R)-8-(2-aminoethyl)-N^2-(3-chloro-4-fluorophenyl)-N^4-(1-cyclopropylethyl)quinazoline-2,4-diamine], the Ki on Son of Sevenless (SOS) is 1 to 5 µM. For the same compound, in test [1], the EC50 lay in the range of 1 to 5 µM.

For the compound `Cc1cc(F)cc(Nc2nc(N[C@H](C)C3CC3)c3cccc(CCN)c3n2)c1` [Example 118, (R)-8-(2-aminoethyl)-N^4-(1-cyclopropylethyl)-N^2-(3-fluoro-5-methylphenyl)quinazoline-2,4-diamine], the Ki at Son of Sevenless (SOS) was 1 to 5 µM. Further, in test [1], the EC50 is 1 to 5 µM.

What is called EC50 is the concentration needed to bring the measured effect to its halfway point. A low value points to an effect from little substance.
